This is an account of results in PubChem BioAssay (NCI).

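Step 1: Grow cells in 96-well plates. Step 2: Expose to compound for 48 hours at 5 concentrations. Step 3: Interpolate endpoints linearly; if unreached, use highest concentration. GI50 marks 50% less growth. At the TGI there is no net growth.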

Common to all, as to experiment: NCI-60 cell line screen, 48 h
The test system of test [1] is SW-620 colon.
Test [2] relates to UACC-257 melanoma.
Test [3] relates to SN12C renal.
Test [4] concerns HCT-15 colon.
In test [5] the test system is SNB-75 CNS.
Test [6] concerns A549 NSCLC.
Test [7] relates to OVCAR-4 ovarian.
In test [8] the test system is OVCAR-8 ovarian.
In test [9] the test system is ACHN renal.
The subject of test [10] is K-562 leukemia.

For `COc1ccccc1/C=C1\CCC(CCN(C)C)(C2=CCCC2)C1=O` (stereo not given), the TGI is 32.1 µM in test [1]; 31 µM in test [2]; 50.3 µM in [3]; 61.8 µM in test [4]; 54.7 µM in [5]; 64.4 µM in test [6]. The TGI came to 35.2 µM in [7], 34.7 µM in [8], 34.1 µM in test [9] and 56.2 µM in test [10].

For the compound `O=Nc1c(-c2c(O)[nH]c3ccc([N+](=O)[O-])cc23)[nH]c2ccc(O)cc12`, the GI50 is 0.385 µM in test [1]; 0.647 µM in test [2]; 0.366 µM in test [3]; 0.376 µM in test [4]; 0.0264 µM in [5]; 0.674 µM in test [6]. The GI50 in [7] was 0.43 µM; in test [8], 0.36 µM; in [9], 0.261 µM; in [10] it was 0.456 µM. For the same compound, the TGI was greater than 100 µM in [1]; greater than 83.9 µM in test [2]; greater than 100 µM in [3]; greater than 100 µM in test [4]; 3.64 µM in test [5]; greater than 60.6 µM in test [6]. Besides, the TGI was greater than 100 µM in [7], greater than 100 µM in test [8], greater than 100 µM in test [9] and greater than 37.7 µM in test [10].

Consider `Cc1ccc(-c2cc(-c3ccco3)c(C#N)c(=O)[nH]2)cc1`, for which the TGI in test [1], in test [2], in [3], in test [4], in [5] and in test [6] was greater than 100 µM in each case. Moreover, the TGI in [7], in test [8], in test [9] and in test [10] was greater than 100 µM in each case.

For the compound `CCn1c(C(=O)N(C2CC2)C2CC2)cc2c3c(ncn3C)c(Nc3cc(C)n(C)n3)nc21`, the GI50 in test [1] is greater than 100 µM; in [2], greater than 100 µM; in [3] it was 98.3 µM; in test [4], greater than 100 µM; in test [5] it was 1.26 µM; in test [6], greater than 100 µM. In addition, the GI50 in [7], in test [8], in test [9] and in test [10] was greater than 100 µM each time. In addition, the TGI in test [1] is greater than 100 µM; in [2], greater than 100 µM; in [3], greater than 100 µM; in [4] it was greater than 100 µM; in [5] it was 32.5 µM; in test [6], greater than 100 µM. Moreover, the TGI in test [7], in test [8], in test [9] and in test [10] was greater than 100 µM in each case.

Take `COc1ccc(Nc2ncc(Br)c(NCCCNC(=O)C3CCC3)n2)cc1`: the GI50 in test [1] is 6.6 µM; in test [2], 68.9 µM; in test [3], 5.45 µM; in [4], 14.7 µM; in test [5], 2.98 µM; in test [6], 14.3 µM. The GI50 in test [7] was 11.3 µM; in test [8], 21.1 µM; in test [9], 13.5 µM; in [10] it was 9.27 µM. Further, the TGI is greater than 100 µM in test [1]; greater than 100 µM in [2]; 62.7 µM in test [3]; 62.5 µM in test [4]; 12.1 µM in test [5]; 37.8 µM in test [6]. Also, the TGI in [7] is 56 µM; in test [8], greater than 100 µM; in test [9], greater than 100 µM; in [10], greater than 100 µM.

In the case of `CCOC(=O)C1=C(C(=O)c2ccc(C)cc2)C(c2cccc([N+](=O)[O-])c2)C(C(=O)c2ccc(C)cc2)=C(C(=O)OCC)N1`, the TGI in test [1] is 27.1 µM; in test [2] it was 41.4 µM; in test [3], 32.4 µM; in test [4], 6.13 µM; in test [5], greater than 100 µM; in test [6], 66.1 µM. Besides, the TGI in [7] turned out to be 84.6 µM; in test [8] it was 45 µM; in test [9], 28.3 µM; in test [10], 57.9 µM.

As for `OC1c2ccccc2C2(O)C1C(c1ccccc1)C(c1ccccc1)C2(O)c1ccccc1` (stereo not given), the TGI in [1] came to 52 µM; in test [2] it was 29.7 µM; in test [3] it was 32.9 µM; in test [4], 22.2 µM; in test [5], 46.2 µM; in [6], 81.2 µM. Further, the TGI in test [7] is greater than 100 µM; in test [8], 43.5 µM; in test [9], 29.7 µM; in [10], 50 µM.

As to `O=C1c2ccc([N+](=O)[O-])cc2-c2c1c1ccccc1c(=O)n2CCCNCCCNCCCn1c2c(c3ccc([N+](=O)[O-])cc3c1=O)C(=O)c1ccccc1-2`, the GI50 in [1] is 0.81 µM; in test [2], 18 µM; in test [3], 0.355 µM; in test [4], 3.4 µM; in test [5] it was 0.427 µM; in test [6] it was 2.69 µM. Further, the GI50 in test [7] was 1.06 µM; in test [8], 0.31 µM; in test [9] it was 4.26 µM; in [10] it was 0.539 µM. The TGI was 3.07 µM in [1]; 59.6 µM in test [2]; 2.91 µM in [3]; 14.3 µM in test [4]; 5.54 µM in [5]; greater than 40.8 µM in test [6]. Also, the TGI in test [7] was 2.88 µM; in test [8] it was 2.32 µM; in [9] it was 15.9 µM; in test [10] it was 1.97 µM.

For the compound `CCCn1c(SC)nc(COC(=O)NC)c1COC(=O)NC`, the TGI in test [1], in test [2], in test [3], in test [4], in test [5] and in test [6] was greater than 100 µM in each case. Further, the TGI in [7], in test [8], in test [9] and in test [10] was greater than 100 µM each time.
